From US9084798B2, “Use of lanostane and Poria extract in treating diabetes” (Sinphar Tian-Li Pharmaceutical Co., Ltd (Hangzhou), priority 2009, dated 2015)

Assays:
3T3-L1 adipocytes [1] = assay: 2-deoxy-glucose uptake in differentiated mature 3T3-L1 adipocytes; format: cell-based, rodent
Procedure: (§1) 3T3-L1 preadipocytes were cultured in Dulbecco's minimal essential medium (DMEM) supplemented with 100 IU/mL penicillin, 100 µg/mL streptomycin, 1% nonessential amino acid and 10% calf serum in 5% CO2 and 95% Air at 37° C. Once the cells have become fully grown, differentiation was induced by treating the cells with differentiation inducers (DMEM containing 0.5 mM 3-isobutyl-1-methylxanthane (IBMX), 1 µM dexamethasone, […], and 10% fetal bovine serum) for two days. The cells were re-fed with DMEM supplemented with 10 µg/mL insulin and 10% FBS for another two days, and then changed to 10% FBS/DMEM without insulin every 2 days for 4-6 days. At this stage, near 90% of the cells expressed the adipocyte phenotype and were ready for the experiments. Before commencing the experiments, the 3T3-L1 cells were rinsed with PBS solution first, and then cultured overnight in the serum-free and insulin-free 0.2% BSA/DMEM culture medium, so as to remove interferences from both serum and insulin.
For the experiment of testing the effects of triterpene compounds on enhancing glucose uptake by 3T3-L1 adipocytes, 3T3-L1 preadipocytes were cultured on 6-well culture dishes, and allowed to grow fully therein before being subjected to differentiation by a differentiation-inducing agent. Once the 3T3-L1 cells became matured and differentiated into adipocytes after 7-12 days, the cells were used for testing glucose uptake. Said adipocytes were firstly placed in a serum-free culture medium (0.2% BSA/DMEM) overnight, followed by cultivation for 2-6 hours in serum-free cell culture media containing different concentrations of triterpene compounds, and then rinsed once with PBS solution before undergoing cultivation in KRP buffer (20 mM HEPES, 137 mM NaCl, 4.7 mM KCl, 1.2 mM MgSO4, 1.2 mM KH2PO4, 2.5 mM CaCl2, and 2 mM pyruvate, pH 7.4 and 0.2% BSA) at 37° C. for 3 hours. Finally, 0.2 μCi/mL of 2-deoxy-D-[^14C]-glucose (2-DG, Amersham Biosciences, Little Chalfont, Bucks, U.K) and 0.2 ml of non-radioactive glucose buffer derived from 0.1 mM 2-DG were used as a substitute for KRP buffer in order to begin the experiment on glucose uptake. After allowing the experiment to run for […], the cells were removed and rinsed with PBS solution to terminate the intake of glucose. Subsequently, the cells were dissolved in 0.2 ml of 0.2% SDS, and 10 μL, of the solution with dissolved cells was transferred into UniFilter plates (Perkim-Elmer, Wellesley, Mass., USA) with filtering bases and dried in a vacuum oven at 37° C., in which each well was added with 30 μL of counting solution, and then analyzed by using a micro-disk liquid scintillation analyzer (TopCount, Packard NXT, Packard BioScience Company, Meriden, Conn., USA). The glucose concentration accumulated in the cells was calculated, and divided by the protein concentration, so as to obtain a glucose uptake rate indicated as nanomoles of glucose uptake in every microgram of cell proteins at every minute (nmol/min/mg). The protein concentration was determined by using the standard Bicinchoninic acid (BCA) protein assay kit (Pierce, Rockford, Ill., USA). The uptake of non-specific glucose was determined by adding 0.2 μCi of L-[14C]-glucose, and then used to substract from the value obtained by the analyzer so as to get a value for the uptake of specific glucose. Therefore, the effects of different concentrations of triterpene compounds on the glucose uptake by 3T3-L1 adipocytes could be determined.

GLUT4 [2] = assay: GLUT4 translocation to plasma membrane, centrifugation fractions and Western blot; format: cell-based, rodent; settings: 2 hours
Procedure: In the mechanism of insulin enhancing glucose uptake by adipocytes or muscle cells, the translocation of GLUT4 from intracellular organelles to plasma membrane (PM) actually plays a vital rol therein, thus the effects of triterpene compounds on enhancing the translocation of GLUT4 to plasma membrane in 3T3-L1 adipocytes were tested here. The differentiated and mature 3T3-L1 adipocytes were cultured overnight in a serum-free cell culture medium, and then further cultured in serum-free cell culture media containing different concentrations of triterpene compounds for 2 hours. This was followed by high-speed centrifugation at different rotation speeds (16,000 g-200,000 g) in order to separate the cellular plasma membrane fraction from the low density microsome (LDM) [Liu, L. Z. et. al.; Mol. Biol. Cell 17, (5), 2322-2330, 2006]. Western blot analysis was performed by using a monoclonal antibody for GLUT4, so as to observe whether there are any effects from different concentrations of triterpene compounds on the translocation of GLUT4 from cellular LDM to PM in 3T3-L1 adipocytes.

3T3-L1 adipocytes [3] = assay: release of glycerol from 3T3-L1 adipocytes (glycerol assay kit); format: cell-based, rodent; settings: 24 hours after administering different doses of PA
Procedure: (§2) For the experiment of testing the effects of triterpene compounds on the accumulation of triglycerides and the release of glycerol in 3T3-L1 adipocytes, the differentiated and mature 3T3-L1 adipocytes were cultivated overnight in a serum-free cell culture medium, and then further cultivated in serum-free cell culture media containing different concentrations of triterpene compounds for 24 hours. The culture media were collected and tested for the release of glycerol by using a glycerol assay kit (Randox Laboratories, Antrim, UK), to determine whether different concentrations of triterpene compounds had any effects on the release of glycerol from lipid breakdown in 3T3-L1 adipocytes. The level of triglycerides in the adipocytes were determined by Oil-Red O staining (Ramirez-Zacarias, J. L. et. al.; Histochemistry 97, (6), 493-497, 1992). The oil droplets formed by the accumulation of lipids in the cells were stained, rinsed twice with 60% isopropanol, and then extracted in 100% isopropanol before being quantified at the absorbance of 490 nm. The readings were compared with that from the adipocytes without being given triterpene compounds, in order to evaluate the effects of different concentrations of triterpene compounds on the accumulation of triglycerides in the adipocytes.

3T3-L1 adipocytes [4] = assay: accumulation of triglycerides in 3T3-L1 adipocytes (Oil-Red O staining); format: cell-based, rodent; settings: 24 hours after administering different doses of PA
Procedure: as §2

GLUT4 [5] = assay: GLUT4 protein expression by Western blot in 3T3-L1 adipocytes; format: cell-based, rodent; settings: different doses of PA for 24 hours
Procedure: For the experiment of testing the effects of triterpene compounds on enhancing the GLUT protein expression in 3T3-L1 adipocytes, the aforesaid differentiated and mature 3T3-L1 adipocytes were cultured overnight in a serum-free cell culture medium, and then further cultured in serum-free cell culture media containing different concentrations of triterpene compounds for 24 hours. This was followed by rinsing the cells with PBS solution, and allowing the cells to lyse in 0.2 mL lysis buffer (1% NP-40, 150 mM NaCl, 0.1% SDS, 50 mM Tris-HCl pH 7.6, 10 mM EDTA, 0.5% deoxycholate, 1 mM PMSF, 1 mM Na3VO4, 10 mM NaF, 10 mM β-glycerophosphate, 10 g/mL protease inhibitor and phosphotase inhibitor cocktails) for 30 min at 4° C. An equal amount of protein from each sample was separated by sodium dodecyl sulfate (SDS)-10% polyacrylamide gel electrophoresis (PAGE) and transblotted onto polyvinylidene difluoride (PVDF) membranes (Millipore, Bedford, Mass., USA). […] Each sample of proteins was treated with a chemiluminescence kit (ECL, Amersham, U.K.) before being exposed and processed into X-ray film, and then quantitatively analyzed by using computer software.

GLUT4 [6] = assay: GLUT4 mRNA expression by real-time Q-PCR in 3T3-L1 adipocytes; format: cell-based, rodent; settings: 1 μM of PA, 24 hours
Procedure: Real-time Q-PCR was performed in order to evaluate mRNA expression of GLUT proteins in 3T3-L1 adipocytes under different concentrations of triterpene compounds. Firstly, the fully differentiated 3T3-L1 adipocytes were mixed with different concentrations of triterpene compounds and left for 24 hours, before removing the cell culture medium and using the Trizol buffer (Invitrogen, Irvine, Calif., USA) to obtain total RNA from the cells. Afterwards, 1 μg of RNA sample was taken therefrom, and a High-Capacity cDNA Reverse Transcription Kit (Applied Biosystems, Darmstadt, Germany) was used to reverse transcribe mRNA in the sample into cDNA. Primers were specifically designed for GLUT1, GLUT4, and β-actin, and the SYBR Green Q-PCR analyzer (Applied Biosystems, Foster City, Calif., USA) was used to expand the gene for detection (Glut1 & 4) and reference gene (β-actin), before relative gene expression values were calculated by the ΔΔCT method using the StepOne v2.0 software (Applied Biosystems).

HA-GLUT4-GFP = assay: GLUT4 translocation to plasma membrane, HA-GLUT4-GFP fluorescence ratio; format: cell-based, rodent; settings: 1.0 μM of PA, 2 hours; rhodamine/GFP fluorescence ratio
3T3-L1 preadipocytes = assay: 2-deoxy-glucose uptake in 3T3-L1 preadipocytes; format: cell-based, rodent
Procedure: as §1, with “Before commencing the experiments, the 3T3-L1 cells were rinsed with PBS solution first, and then cultured overnight in the serum-free and insulin-free 0.2% BSA/DMEM culture medium, so as to remove interferences from both serum and insulin.” left out
For the experiment of testing the effects of triterpene compounds on enhancing glucose uptake by 3T3-L1 adipocytes, 3T3-L1 preadipocytes were cultured on 6-well culture dishes, and allowed to grow fully therein before being subjected to differentiation by a differentiation-inducing agent. […] The glucose concentration accumulated in the cells was calculated, and divided by the protein concentration, so as to obtain a glucose uptake rate indicated as nanomoles of glucose uptake in every microgram of cell proteins at every minute (nmol/min/mg). […]

[7] = tested on: 3T3-L1 adipocytes with suppressed GLUT4 expression (shG4-30); assay: glucose uptake in adipocytes with suppressed mRNA expression of GLUT4 (shG4-30); format: cell-based, rodent; settings: different doses of PA
Text: A viral carrier (TRCN0000043630 shRNA, Genomics Research Center, Academia Sinica, R.O.C.) carrying GLUT4-inhibiting RNA was used to infect the 3T3-L1 preadipocytes (shG4-30), in order to create a gene expression having consistent inhibition of GLUT4 expression, and the cell strain was allowed to further differentiate, from which the differentiated adipocytes were used for the experiments.
For the experiment of testing the effects of triterpene compounds on enhancing glucose uptake by 3T3-L1 adipocytes, 3T3-L1 preadipocytes were cultured on 6-well culture dishes, and allowed to grow fully therein before being subjected to differentiation by a differentiation-inducing agent. […] Subsequently, the cells were dissolved in 0.2 ml of 0.2% SDS, and 10 μL, of the solution with dissolved cells was transferred into UniFilter plates (Perkim-Elmer, Wellesley, Mass., USA) with filtering bases and dried in a vacuum oven at 37° C., in which each well was added with 30 μL of counting solution, and then analyzed by using a micro-disk liquid scintillation analyzer (TopCount, Packard NXT, Packard BioScience Company, Meriden, Conn., USA). The glucose concentration accumulated in the cells was calculated, and divided by the protein concentration, so as to obtain a glucose uptake rate indicated as nanomoles of glucose uptake in every microgram of cell proteins at every minute (nmol/min/mg). […]

mice = settings: cited from earlier work
in vitro adipocytes = settings: cited from earlier work
[8] = 0.01 μM, two hours after giving the compound, versus untreated control

insulin [reference compound]
effect on glucose uptake (3T3-L1 adipocytes [1]; 100 nM insulin): effective for increasing glucose uptake

C=C(CC[C@@H](C(=O)O)[C@H]1[C@H](O)C[C@@]2(C)C3=C(CC[C@]12C)[C@@]1(C)CC[C@H](OC(C)=O)C(C)(C)[C@@H]1CC3)C(C)C [PA, pachymic acid]
amount of GLUT4 in the plasma membrane increased to (FIG. 8A) (GLUT4 [2]; 0.01 μM of PA): 141% | amount of GLUT4 in the plasma membrane increased to (FIG. 8A) (GLUT4 [2]; 1 μM of PA): 328% | release of glycerol lowered to (3T3-L1 adipocytes [3]): approximately 70 % of the original level | glucose uptake increased to (3T3-L1 adipocytes [1]; [8]): 165.89% | glucose uptake increased to (3T3-L1 adipocytes [1]; PA at 1 μM, acting two hours): 209.84% | enhancement of glucose uptake (FIG. 4) (3T3-L1 adipocytes [1]; differentiated adipocytes): only effective for enhancing glucose uptake in differentiated adipocytes | accumulation of triglycerides (FIG. 9) (3T3-L1 adipocytes [4]): exceeded 137% | protein expression of GLUT4 (FIG. 5) (GLUT4 [5]): effective for enhancing the protein expression of GLUT4 | gene expression of GLUT4 elevated to (FIG. 6) (GLUT4 [6]): 228% | translocation of GLUT4 to plasma membrane elevated (FIG. 8B) (HA-GLUT4-GFP): 2.71 fold | enhancement of glucose uptake (FIG. 4) (3T3-L1 preadipocytes): not for preadipocytes | glucose uptake in adipocytes with low expression of GLUT4 (FIG. 7B) [7]: did not greatly enhance the glucose uptake

C=C(CC[C@@H](C(=O)O)[C@H]1[C@H](O)C[C@@]2(C)C3=CC[C@H]4C(C)(C)C(=O)CC[C@]4(C)C3=CC[C@]12C)C(C)C [PPA, polyporenic acid C]
glucose uptake increased to (3T3-L1 adipocytes [1]; [8]): 147.9%

CC(C)=CCC[C@@H](C(=O)O)[C@H]1CC[C@@]2(C)C3=CC[C@H]4C(C)(C)[C@@H](O)CC[C@]4(C)C3=CC[C@]12C [dehydrotrametenolic acid]
effective dose (mice; mice): 110 mg/kg | effective dose for use in the human body (mice; researchers' conclusion from the mouse dose): more than 700 mg | effective concentration (in vitro adipocytes): 10^−5 M

O=C(CCc1ccc(O)cc1)c1c(O)cc(O)cc1O [phloretin (PT), phloretin, reference compound]
glucose uptake after phloretin (FIG. 4) (3T3-L1 adipocytes [1]; adipocytes): significantly inhibited | glucose uptake after phloretin (FIG. 4) (3T3-L1 preadipocytes): significantly inhibited

C=C(CC[C@@H](C(=O)O)[C@H]1[C@H](O)C[C@@]2(C)C3=C(CC[C@]12C)[C@@]1(C)CC[C@H](O)C(C)(C)[C@@H]1CC3)C(C)C [TA, tumulosic acid]
glucose uptake increased to (3T3-L1 adipocytes [1]; [8]): 142.5%
